Results as given in patent publication US12280090B2, “Antimicrobial peptides” (priority 2018, dated 2025).
≈ marks a conversion by molar mass, not a printed value. Read-outs that look alike come from different tables or passages of the source. Ends that are not written are not given here. Peptide text beside a SMILES is read from it.

Key:
Format in all cases: cell-based
[1] = test system: Escherichia coli—Extended spectrum beta-lactamase
Protocol: (§1) Independent experiments were conducted with four strains of E. coli, including ATCC E. coli (Escherichia coli—ATCC 25922 “wild type”); ESBL E. coli (Escherichia coli—Extended spectrum beta-lactamase); CPO E. coli (KPC) (Escherichia coli—Carbapenemase-producing organism; Klebsiella pneumoniae carbapenemase); and CPO E. coli (NDM) (Escherichia coli—Carbapenemase-producing organism; New-Dehli Metallobetalactamase).
(§2) The ATCC (American Type Culture Collection) strains received from Cedarlane. Multi drug resistant (MDR) strains, as clinical isolates, were received from the laboratory of Dr. Linda Hoang.
(§3) Putative antimicrobial peptides were synthesized by GeneScript. A-list antimicrobial peptides re-synthesized by GeneScript. P2_CCH, P5_CCH, and P5_CCH_A19K were each synthesized under two conditions: standard synthesis using TFA, and the other with TFA-removal using acetate as a counter-ion. A MIC method, adapted for use with cationic antimicrobial peptides, was used to evaluate MIC antimicrobial activity (Hancock 1999).
(§4) The following data are presented to show the activity (MIC/MBC in μg/mL) of certain antimicrobial peptides described herein relative to a modified/synthetic version having a specified substitution. While data presented in tables above may be presented again, or may be represented in data provided in the tables below, such duplication is believed to assist the reader in readily noting comparisons. Different Run Numbers noted in the following tables denotes experiments conducted on different days, with each run reflecting multiple n values.

[2] = test system: Escherichia coli—Carbapenemase-producing organism; New-Dehli Metallobetalactamase
Protocol: as §1, §2, §3, §4

Salmonella Enteritidis = test system: Salmonella Enteritidis
Excerpt: as §3, §4

[3] = test system: Salmonella Heidelberg (MDR)
Excerpt: as §2, §3, §4

[4] = test system: Escherichia coli—ATCC 25922 “wild type”
Protocol: as §1, §2, §3, §4

[5] = test system: Escherichia coli—Carbapenemase-producing organism; Klebsiella pneumoniae carbapenemase
Protocol: as §1, §2, §3, §4

[6] = test system: Pseudomonas aeruginosa: ATCC 10148; details: ATCC 10148
Protocol: (§5) Microtiter broth dilution assays. HP2, HP3, and HP5 peptides are comprised of novel sequences that have not yet been described in the AMP literature. A common method for establishing antimicrobial activity of peptides is to perform microtiter broth assays. Microtiter broth dilution methods were implemented for determination of the minimum inhibitory concentration (MIC) and minimum bactericidal concentration (MBC). HP3 and HP5 were tested in addition to Ranatuerin-1/HP4 peptide as a positive control. HP2 could not be tested because multiple peptide synthesis attempts failed. The human cathelicidin, LL-37^30 was used as an additional positive control, and an unrelated similarly sized cationic peptide from the T. pallidum protein Tp0751 was used as a negative control. The potential AMPs were tested against bacteria representative of all three types of known cell envelope (Gram-positive, negative, and the complex and unique mycobacterial cell wall/envelope), given that a major mechanism used by AMPs is cell wall/membrane targeting.
(§6) Microtiter broth dilution assays. To test for antimicrobial activity, HP3, HP4/Ranatuerin-1, and HP5, peptides were synthesized by GenScript (Piscataway, New Jersey, USA). HP2 was not tested because the service provider was unable to synthesize this peptide despite multiple attempts. An unrelated, similarly-sized peptide from the Treponema pallidum protein Tp0751^55 was used as a negative control and the human cathelicidin, LL-37^30, was included as a positive control. Peptides were dissolved in filter-sterilized ultrapure water and tested for sterility by plating on non-selective agar plates followed by a 48 h incubation at 37° C. Two-fold serial dilutions of each peptide were prepared to obtain a series corresponding to ten times the required testing concentrations (2560, 1280, 640, 320, 160, 80, 40, 20, 10, and 5 μg/mL)^29.
(§7) Microtiter broth dilution methods were implemented for determination of the minimum inhibitory concentration (MIC) and minimum bactericidal concentration (MBC) of the four putative AMPs and the negative control peptide using procedures adapted from the R.E.W. Hancock Laboratory for cationic AMPs^29 and the CLSI methods for dilution antimicrobial susceptibility tests^56.
(§8) To assess antimicrobial activity across a diverse range of bacterial species, colonies were cultured overnight on Mueller Hinton agar plates (MHA; +5% sheep blood for S. pyogenes)^56 from frozen glycerol stock. Bacteria tested include Gram-negative rods (Escherichia coli: ATCC 9723H; Pseudomonas aeruginosa: ATCC 10148), Gram-positive cocci (Staphylococcus aureus: ATCC 6538P; Streptococcus pyogenes: unknown strain, hospital isolate), and Mycobacterium smegmatis (MC^2155; classified as neither Gram-positive nor Gram-negative). Bacterial suspensions were prepared by placing 3-5 morphologically similar colonies from the grown plate into sterile glass culture tubes containing 2 mL of Mueller Hinton Broth (MHB; +5% lysed horse blood for S. pyogenes) 56. Microbial inoculums from bacterial suspensions were prepared through a spectrophotometric adjustment of turbidity to 0.08-0.1 at 600 nm to achieve a turbidity equivalent to that of a 0.5 McFarland standard (1-2×10^8 CFU/mL)^29. The standardized bacterial inoculums were then diluted in MHB to obtain final cell densities of approximately […].
(§9) Ninety-six-well microtiter plates (Fisher Cat. No. CS003790; Nepean, Ontario, Canada) were prepared with 100 μL of E. coli, P. aeruginosa, S. aureus, S. pyogenes, or M. smegmatis bacterial suspension (5×10^5 CFU/mL) dispensed into each well of columns 1 through 11. Eleven microliters of the 10×AMP dilution series for all four peptides were added to each well from column 1 (2560 μg/mL) to column 10 (5 μg/mL) in all plates. Column 11 functioned as a positive control for bacterial growth in the absence of AMPs. Column 12 in each plate contained 100 μL of MHB as a sterility control (+5% lysed horse blood for S. pyogenes)^56. […]

[7] = test system: Escherichia coli: ATCC 9723H; details: ATCC 9723
Protocol: as §5, §6, §7, §8, §9

[8] = test system: Mycobacterium smegmatis (MC^2155); details: Mycobacterium (MC^2155)
Protocol: as §5, §6, §7, §8, §9

[9] = test system: Streptococcus pyogenes: unknown strain, hospital isolate; details: unknown strain, hospital isolate
Protocol: as §5, §6, §7, §8, §9

[10] = test system: Staphylococcus aureus: ATCC 6538P; details: ATCC 6538
Protocol: as §5, §6, §7, §8, §9

[11] = test system: Staphylococcus aureus—ATCC 29213 “wild type”; details: ATCC 29213
Protocol: Independent experiments were conducted with different strains of Staphylococcus aureus—ATCC 29213 “wild type”; and Staphylococcus aureus—Methicillin resistant Staphylococcus aureus.
as §2, §3, §4

MIC [1] [µg/mL]	MIC [2] [µg/mL]	MIC (Salmonella Enteritidis) [µg/mL]	MIC [3] [µg/mL]	Minimum Inhibitory Concentration (MIC) [1] [µg/mL]	Minimum Inhibitory Concentration (MIC) [4] [µg/mL]	Minimum Inhibitory Concentration (MIC) [5] [µg/mL]	Minimum Inhibitory Concentration (MIC) [2] [µg/mL]	MIC [6] [µg/mL]	MIC [8] [µg/mL]	MIC [9] [µg/mL]	MIC [10] [µg/mL]	MIC [5] [µg/mL]	Molecule	MBC [1] [µg/mL]	MBC [2] [µg/mL]	MBC (Salmonella Enteritidis) [µg/mL]	MBC [6] [µg/mL]	MBC [9] [µg/mL]	MBC [10] [µg/mL]	MBC [5] [µg/mL]	further results
128 (≈ 95.8 µM)	128 (≈ 95.8 µM)												CC[C@H](C)[C@H](NC(=O)[C@H](C)NC(=O)[C@@H]1CCCN1C(=O)[C@@H](N)Cc1ccccc1)C(=O)N[C@H](C(=O)N[C@@H](CS)C(=O)N[C@@H](CCCCN)C(=O)N[C@H](C(=O)N[C@@H](CO)C(=O)N[C@@H](CCCCN)C(=O)N[C@@H](CCCCN)C(=O)N[C@@H](CS)C(=O)O)C(C)C)[C@@H](C)CC [Peptide P8_CCH_N11K, FPAIICKVSKKC] (H-FPAIICKVSKKC-OH; N-terminus and C-terminus assumed)	128 (≈ 95.8 µM)	128 (≈ 95.8 µM)						
32 (≈ 9.77 µM)		256 (≈ 78.2 µM)	128 (≈ 39.1 µM)	32	16 to 32	16 to 32	32 to 64						CC[C@H](C)[C@H](NC(=O)[C@H](CCCCN)NC(=O)[C@@H](NC(=O)[C@H](C)NC(=O)[C@H](Cc1ccccc1)NC(=O)[C@H](CC(=O)O)NC(=O)[C@H](CCCCN)NC(=O)CNC(=O)[C@@H](NC(=O)[C@@H](NC(=O)[C@H](CCCCN)NC(=O)[C@@H](NC(=O)[C@@H](NC(=O)[C@H](CC(=O)O)NC(=O)[C@H](CC(C)C)NC(=O)[C@H](CC(C)C)NC(=O)CN)[C@@H](C)CC)[C@@H](C)CC)[C@@H](C)O)[C@@H](C)O)C(C)C)C(=O)N[C@@H](CC(C)C)C(=O)N[C@@H](CC(=O)O)C(=O)N[C@@H](CC(N)=O)C(=O)N[C@@H](CC(C)C)C(=O)N[C@@H](CCCCN)C(=O)N[C@@H](CS)C(=O)N[C@@H](CCCCN)C(=O)N[C@@H](CC(C)C)C(=O)N[C@@H](C)C(=O)NCC(=O)NCC(=O)N[C@@H](CS)C(=O)N1CCC[C@H]1C(=O)N[C@@H](CCCCN)C(=O)O [Peptide P4_CCH_P31K] (H-GLLDIIKTTGKDFAVKILDNLKCKLAGGCPK-OH; N-terminus and C-terminus assumed)	32 (≈ 9.77 µM)		256 (≈ 78.2 µM)					Minimum Inhibitory Concentration (MIC) ([3]; S. enterica spp. Heidelberg, Gram negative): 128+ ug/mL
			256 (≈ 78.9 µM)	64	32 to 64	32	64 to 128	>256	8 (≈ 2.47 µM)	256 (≈ 78.9 µM)	>256	32 (≈ 9.87 µM)	CC[C@H](C)[C@H](NC(=O)[C@H](CCCCN)NC(=O)[C@@H](NC(=O)[C@H](C)NC(=O)[C@H](Cc1ccccc1)NC(=O)[C@H](CC(=O)O)NC(=O)[C@H](CCCCN)NC(=O)CNC(=O)[C@@H](NC(=O)[C@@H](NC(=O)[C@H](CCCCN)NC(=O)[C@@H](NC(=O)[C@@H](NC(=O)[C@H](CC(=O)O)NC(=O)[C@H](CC(C)C)NC(=O)[C@H](CC(C)C)NC(=O)CN)[C@@H](C)CC)[C@@H](C)CC)[C@@H](C)O)[C@@H](C)O)C(C)C)C(=O)N[C@@H](CC(C)C)C(=O)N[C@@H](CC(=O)O)C(=O)N[C@@H](CC(N)=O)C(=O)N[C@@H](CC(C)C)C(=O)N[C@@H](CCCCN)C(=O)N[C@@H](CS)C(=O)N[C@@H](CCCCN)C(=O)N[C@@H](CC(C)C)C(=O)N[C@@H](C)C(=O)NCC(=O)NCC(=O)N[C@@H](CS)C(=O)N1CCC[C@H]1C(=O)N1CCC[C@H]1C(=O)O [Peptide P4_CCH] (H-GLLDIIKTTGKDFAVKILDNLKCKLAGGCPP-OH; N-terminus and C-terminus assumed)				>256	256 (≈ 78.9 µM)	>256	64 (≈ 19.7 µM)	MBC [7]: 128 µg/mL (≈ 39.5 µM); MIC [7]: 128 µg/mL (≈ 39.5 µM); MBC [8]: >256 µg/mL
	128 (≈ 37.8 µM)		256 (≈ 75.7 µM)	64	64	64 to 128							CC[C@H](C)[C@H](NC(=O)CNC(=O)[C@@H](NC(=O)[C@@H](NC(=O)[C@H](CCCCN)NC(=O)CNC(=O)[C@@H](NC(=O)[C@H](CCCCN)NC(=O)[C@H](CCCCN)NC(=O)[C@@H](NC(=O)[C@@H](NC(=O)[C@H](CC(=O)O)NC(=O)[C@H](CC(C)C)NC(=O)[C@H](CC(C)C)NC(=O)CN)[C@@H](C)CC)[C@@H](C)CC)[C@@H](C)O)[C@@H](C)O)[C@@H](C)O)C(=O)N[C@@H](CC(C)C)C(=O)N[C@@H](CCSC)C(=O)N[C@@H](CC(=O)O)C(=O)N[C@H](C(=O)N[C@@H](CC(C)C)C(=O)N[C@@H](CCCCN)C(=O)N[C@@H](CS)C(=O)N[C@@H](CS)C(=O)N[C@@H](CCSC)C(=O)N[C@H](C(=O)NCC(=O)N[C@@H](CCCNC(=N)N)C(=O)N[C@@H](CS)C(=O)N1CCC[C@H]1C(=O)N1CCC[C@H]1C(=O)N[C@@H](CO)C(=O)N[C@@H](CO)C(=O)O)[C@@H](C)O)[C@@H](C)O [P3_CCH_D8K_Q23C] (H-GLLDIIKKTGKTTGILMDTLKCCMTGRCPPSS-OH; N-terminus and C-terminus assumed)		128 (≈ 37.8 µM)						MBC [4]: 64 µg/mL (≈ 18.9 µM); MIC [4]: 64 µg/mL (≈ 18.9 µM); Minimum Inhibitory Concentration (MIC) ([2]; CPO E. coli NDM, Gram negative): 128+ ug/mL
		64	128	16	16	16 to 32	16	>256	16	>256	>256		FFPRVLPLANKFLPTIYCALPKSVGN [Peptide P2_CCH]			64	>256	>256	>256		Minimum Inhibitory Concentration (MIC) (Salmonella Enteritidis): 64 µg/mL; MBC [3]: 128 µg/mL; Minimum Inhibitory Concentration (MIC) [3]: 128 µg/mL
128	256											256	ATAWMIPPRGMQPIIPIRIRPLCGKQ [P7_CCH_P9R_R5M]	128						256	MIC [11]: 128 µg/mL; MIC [4]: 256 µg/mL
